Series [1] concerns Phospholipidosis. The series is described as follows: Phospholipidosis-positive literature compound observed in human. The format is ADME.
Series [2] relates to Phospholipidosis. The series can be described thus: Phospholipidosis-positive literature compound observed in mouse. The series is classed as ADME, organism-based. The conditions noted are these: in vivo.
Series [3] concerns Phospholipidosis. The series can be described thus: Phospholipidosis-positive literature compound observed in rabbit. The format is ADME, Oryctolagus cuniculus.
In series [4] the test system is Phospholipidosis. To be noted: rat.
For series [5], the system named is Phospholipidosis. The series is described as follows: Phospholipidosis-positive literature compound observed in dog. The series is classed as ADME, Canis lupus familiaris.
The test system of series [6] is Phospholipidosis. The series is described as follows: Phospholipidosis-positive literature compound observed in Rhesus monkey. The format is ADME, Macaca mulatta.
Series [7] concerns Phospholipidosis. The series is described as follows: Phospholipidosis-positive literature compound observed in hamster. The conditions noted are these: cricetinae.
In series [8] the test system is Phospholipidosis. The series is described as follows: Phospholipidosis-positive literature compound observed in monkey. The conditions noted are these: cercopithecidae. The format is ADME.
The subject of series [9] is Phospholipidosis. The series can be described thus: Phospholipidosis-positive literature compound observed in guinea pig. The series is classed as ADME, Cavia porcellus.

For `CCN(CC)Cc1cc(Nc2ccnc3cc(Cl)ccc23)ccc1O.Cl`, in the series on Phospholipidosis [1], the Phospholipidosis result is “Active”.

Take `Clc1ccccc1CNC[C@H]1CC[C@H](CNCc2ccccc2Cl)CC1`: the Phospholipidosis result in the series with Phospholipidosis [2], in the series with Phospholipidosis [3] and with Phospholipidosis [4] was “Active” throughout.

As to `C[n+]1ccc(-c2cc[n+](C)cc2)cc1`, the Phospholipidosis entry with Phospholipidosis [2] is “Active”.

As for `CCCCc1oc2ccccc2c1C(=O)c1cc(I)c(OCCN(CC)CC)c(I)c1` [AMIODARONE], the Phospholipidosis result in the series with Phospholipidosis [1] and in the series with Phospholipidosis [4] was “Active” throughout.

As to `CN(C)CCCN(C)[C@H]1CC[C@H]2[C@@H]3CC=C4C[C@@H](O)CC[C@]4(C)[C@H]3CC[C@]12C` [AZACOSTEROL], in the series on Phospholipidosis [2], the Phospholipidosis entry is recorded as “Active”.

With `CCN(CC)CCCC(C)Nc1ccnc2cc(Cl)ccc12` (stereo unspecified) [CHLOROQUINE], the Phospholipidosis result in the series on Phospholipidosis [1], with Phospholipidosis [2], in the series on Phospholipidosis [5], with Phospholipidosis [6] and in the series on Phospholipidosis [4] was “Active” each time.

As to `CC(C)(N)Cc1ccc(Cl)cc1` [CHLORPHENTERMINE], the Phospholipidosis entry in the series with Phospholipidosis [2], in the series with Phospholipidosis [5], in the series with Phospholipidosis [3] and with Phospholipidosis [4] was “Active” in each case.

For the compound `CN(C)CCCN1c2ccccc2Sc2ccc(Cl)cc21` [CHLORPROMAZINE], the Phospholipidosis entry in the series on Phospholipidosis [5] and in the series with Phospholipidosis [4] was “Active” throughout.

Turning to `CCC[C@@H]1C[C@@H](C(=O)N[C@@H]([C@H]2O[C@H](SC)[C@H](O)[C@@H](O)[C@H]2O)[C@H](C)Cl)N(C)C1` [CLINDAMYCIN], the Phospholipidosis entry with Phospholipidosis [5] and with Phospholipidosis [4] was “Active” in each case.

Turning to `CN1CCN(C2=Nc3cc(Cl)ccc3Nc3ccccc32)CC1` [CLOZAPINE], in the series with Phospholipidosis [4], the Phospholipidosis entry is reported as “Active”.

As to `CCC(c1ccc(OCCN(CC)CC)cc1)C(CC)c1ccc(OCCN(CC)CC)cc1` (stereo unspecified) [CORALGIL], the Phospholipidosis result with Phospholipidosis [1], in the series on Phospholipidosis [2], in the series on Phospholipidosis [5], in the series with Phospholipidosis [3], with Phospholipidosis [7] and in the series on Phospholipidosis [4] was “Active” in each case.

Turning to `CN1CCN(C(c2ccccc2)c2ccccc2)CC1` [CYCLIZINE], the Phospholipidosis entry with Phospholipidosis [4] was “Active”.

As for `NC[C@@H]1CC[C@@H](N)[C@@H](O[C@H]2[C@H](O)[C@@H](O[C@H]3O[C@H](CO)[C@@H](O)[C@H](N)[C@H]3O)[C@H](N)C[C@@H]2N)O1` [DIBEKACIN], the Phospholipidosis entry with Phospholipidosis [4] is given as “Active”.

`CC(C)N(CCC(CCN1CCCCC1)(C(N)=O)c1ccccc1Cl)C(C)C` (stereo unspecified) [DISOBUTAMIDE]: the Phospholipidosis result in the series on Phospholipidosis [5], with Phospholipidosis [8] and with Phospholipidosis [4] was “Active” each time.

Consider `CC[C@H]1CN2CCc3cc(OC)c(OC)cc3[C@@H]2C[C@@H]1C[C@H]1NCCc2cc(OC)c(OC)cc21` [EMETINE], for which, in the series on Phospholipidosis [4], the Phospholipidosis result was “Active”.

As for `CC[C@H]1OC(=O)[C@H](C)[C@@H](O[C@H]2C[C@@](C)(OC)[C@@H](O)[C@H](C)O2)[C@H](C)[C@@H](O[C@@H]2O[C@H](C)C[C@H](N(C)C)[C@H]2O)[C@](C)(O)C[C@@H](C)C(=O)[C@H](C)[C@@H](O)[C@]1(C)O` [ERYTHROMYCIN], the Phospholipidosis entry in the series with Phospholipidosis [5] and in the series on Phospholipidosis [4] was “Active” in each case.

Regarding `CCOC(=O)C1N=C(c2ccccc2F)c2cc(Cl)ccc2NC1=O` (stereo unspecified) [ETHYL LOFLAZEPATE], in the series on Phospholipidosis [4], the Phospholipidosis result is “Active”.

Turning to `CCNC(C)Cc1cccc(C(F)(F)F)c1` (stereo unspecified) [FENFLURAMINE], the Phospholipidosis result in the series on Phospholipidosis [5], in the series with Phospholipidosis [9] and with Phospholipidosis [4] was “Active” in each case.

Turning to `CN1CCCN(C(c2ccccc2)c2ccc(Cl)cc2)CC1` (stereo unspecified) [HOMOCHLORCYCLIZINE], in the series on Phospholipidosis [4], the Phospholipidosis entry is listed as “Active”.

Consider `OCCOCCN1CCN(C(c2ccccc2)c2ccc(Cl)cc2)CC1` (stereo unspecified) [HYDROXYZINE], for which, in the series with Phospholipidosis [4], the Phospholipidosis result is “Active”.

As to `CN(C)CCCN1c2ccccc2CCc2ccccc21` [IMIPRAMINE], the Phospholipidosis entry in the series on Phospholipidosis [4] was “Active”.

`O=C(NC1CCN(CCc2c[nH]c3ccccc23)CC1)c1ccccc1` [INDORAMIN]: the Phospholipidosis result in the series on Phospholipidosis [4] is “Active”.

Regarding `CN(C)CCCn1c2c(c3ccccc31)CCCCCC2` [IPRINDOLE], the Phospholipidosis entry in the series on Phospholipidosis [4] was “Active”.

For the compound `CC(=O)N1CCN(c2ccc(OCC3COC(Cn4ccnc4)(c4ccc(Cl)cc4Cl)O3)cc2)CC1` (stereo unspecified) [KETOCONAZOLE], in the series with Phospholipidosis [2], the Phospholipidosis entry is on record as “Active”.

On to `CNCCCC12CCC(c3ccccc31)c1ccccc12` [MAPROTILINE], for which the Phospholipidosis entry with Phospholipidosis [4] is listed as “Active”.

With `Cc1cccc(CN2CCN(C(c3ccccc3)c3ccc(Cl)cc3)CC2)c1` (stereo unspecified) [MECLIZINE], the Phospholipidosis result in the series on Phospholipidosis [4] is reported as “Active”.

With `CCN[C@@H]1C[C@H](N)[C@@H](O[C@H]2OC(CN)=CC[C@H]2N)[C@H](O)[C@H]1O[C@H]1OC[C@](C)(O)[C@H](NC)[C@H]1O` [NETILMICIN], in the series on Phospholipidosis [4], the Phospholipidosis result is listed as “Active”.

With `Clc1ccc(C(c2ccccc2)N2CCNCC2)cc1` (stereo unspecified) [NORCHLORCYCLIZINE], the Phospholipidosis result with Phospholipidosis [4] is reported as “Active”.

With `NCCc1cc(O)c(O)cc1O` [OXIDOPAMINE], the Phospholipidosis entry in the series with Phospholipidosis [4] was “Active”.

In the case of `C1CCC(C(CC2CCCCN2)C2CCCCC2)CC1` (stereo unspecified) [PERHEXILINE], the Phospholipidosis entry with Phospholipidosis [1], with Phospholipidosis [2] and with Phospholipidosis [4] was “Active” each time.

On to `CCOc1ccc(NC(C)=O)cc1` [PHENACETIN], for which the Phospholipidosis entry with Phospholipidosis [4] is “Active”.

As for `CCN(CC)CCCC(C)Nc1c2ccc(Cl)cc2nc2ccc(OC)cc12` (stereo unspecified) [QUINACRINE], the Phospholipidosis result in the series with Phospholipidosis [4] was “Active”.

As for `N=C(N)c1ccc(/C=C/c2ccc(C(=N)N)cc2)cc1` [STILBAMIDINE], in the series on Phospholipidosis [1], the Phospholipidosis result is reported as “Active”.

For `Cc1ccc(C(=O)Nc2ccc(S(=O)(=O)O)c3cc(S(=O)(=O)O)cc(S(=O)(=O)O)c23)cc1NC(=O)c1cccc(NC(=O)Nc2cccc(C(=O)Nc3cc(C(=O)Nc4ccc(S(=O)(=O)O)c5cc(S(=O)(=O)O)cc(S(=O)(=O)O)c45)ccc3C)c2)c1` [SURAMIN], the Phospholipidosis result with Phospholipidosis [4] is reported as “Active”.

`CC/C(=C(\c1ccccc1)c1ccc(OCCN(C)C)cc1)c1ccccc1` [TAMOXIFEN]: the Phospholipidosis entry in the series with Phospholipidosis [4] is listed as “Active”.

Turning to `CCN(CC)CCOc1ccc2c(c1)C(=O)c1cc(OCCN(CC)CC)ccc1-2` [TILORONE], the Phospholipidosis entry with Phospholipidosis [1] and in the series on Phospholipidosis [4] was “Active” in each case.

With `NC[C@H]1O[C@H](O[C@H]2[C@H](O)[C@@H](O[C@H]3O[C@H](CO)[C@@H](O)[C@H](N)[C@H]3O)[C@H](N)C[C@@H]2N)[C@H](N)C[C@@H]1O` [TOBRAMYCIN], the Phospholipidosis result in the series on Phospholipidosis [1] and with Phospholipidosis [4] was “Active” each time.

As to `CCN(CC)CCOc1ccc(C(O)(Cc2ccc(Cl)cc2)c2ccc(C)cc2)cc1` (stereo unspecified) [TRIPARANOL], the Phospholipidosis result in the series on Phospholipidosis [2], with Phospholipidosis [7] and in the series with Phospholipidosis [4] was “Active” throughout.

`CN(C)C/C=C(/c1ccc(Br)cc1)c1cccnc1` [ZIMELDINE]: the Phospholipidosis result with Phospholipidosis [5] and in the series on Phospholipidosis [4] was “Active” each time.

As to GENTAMICIN, the Phospholipidosis entry in the series with Phospholipidosis [1], in the series with Phospholipidosis [5] and in the series with Phospholipidosis [4] was “Active” throughout.

For the origin of these results see ChEMBL document CHEMBL1615345, “Evaluation of a published in silico model and construction of a novel Bayesian model for predicting phospholipidosis inducing potential” (J Chem Inf Model, 2007).
